According to article PMC5814186, “Identification and characterization of novel enhanced cell penetrating peptides for anti-cancer cargo delivery” (Oncotarget, 2017):
No end group written: not given here.

Columns and labels:
[1] = cited from earlier work
From the text: Electrostatic interactions between the […] in the cell membrane surface are important for the internalization. […] When tryptophan residues were replaced by leucine residues, the peptide was not internalized.

[2] = Stability to protease degradation in human serum; settings: 37°C, different periods of time up to 24 h, triplicate; for stability in human serum (percentage of intact peptide), shuttles associated to the cargo PP2A/SET, compared to the shuttle without cargo: MS (MALDI-TOF)
Experimental: We further analyzed the stability to proteases degradation of the shuttles in human serum upon incubation at 37°C for different periods of time. All the shuttles were incubated with human serum and the resistance to proteases degradation analyzed by HPLC-MS.
Figure 7 Stability of the new generated shuttles in human serum (A) The shuttles were incubated at 37°C in human serum for different periods of time and their integrity (percentage of intact peptide) was analyzed by mass spectrometry (MS). Every measurement was performed in triplicate. Standard deviation is shown. (B) The shuttles Tat, Penetatin and R8 were incubated as above and the integrity was analyzed by MS. Every measurement was performed in triplicate.
For this, the new generated bi-functional peptides (shuttles associated to the cargo PP2A/SET) were incubated with human serum for different periods of time.
Figure 9 Stability in human serum of the shuttles associated to a cargo (PP2A/SET binding site) The shuttles associated to the cargo PP2A/SET were incubated at 37°C in human serum for different periods of time and their integrity (percentage of intact peptide) was analyzed by mass spectrometry (MS). Measurements were performed in triplicate and standard deviation is shown.
Peptides were incubated at 37°C in 250 ml of human serum for different periods of time. Samples were collected and peptides degradation stopped by freezing. Peptides were extracted from samples using the Proteo Miner Protein Enrichment System (Bio-Rad). Peptide integrity (percentage of intact peptide) was analyzed by mass spectrometry (MS) using MALDI-TOF (Brucker Autoflex II) following their standard protocols. Measurements were performed in triplicate. MS data were analyzed using appropriate software (Clinprot tools, Flex analysis, Brucker).

[3] = cited from earlier work; remark: listed apart in the source
From the text: We have recently published the use of a CPP named Mut3DPT [15, 16]. […] We decided to generate new CPPs with enhanced penetration and stability, compared to the original Mut3DPT shuttle and keeping equilibrium among penetration, solubility and toxicity.

| Compound | stability in human serum (percentage of intact peptide), shuttles associated to the cargo PP2A/SET, compared to the shuttle without cargo [2] | also measured |
| --- | --- | --- |
| RRWWRRWRR [RW9, literature CPP RW9 (…)] | – | cellular uptake / internalization [1]: good cellular uptake |
| KKKKKWKKWKKKETVTLLVALKVRYRERIT [Mut7DPT-PP2A/SET] | does not significantly modify the stability | – |
| VKKKKIKAEIKI [Mut3DPT] | – | resistance to protease degradation [3]: favourable parameters of resistance to protease degradation |
| KKWKKWKKWKKETVTLLVALKVRYRERIT [Mut5DPT-PP2A/SET] | slightly degradation upon 24 h | – |
| N=C(N)NCCC[C@H](NC(=O)[C@H](CCCNC(=N)N)NC(=O)[C@H](CCCNC(=N)N)NC(=O)[C@H](CCCNC(=N)N)NC(=O)[C@H](CCCNC(=N)N)NC(=O)[C@H](CCCNC(=N)N)NC(=O)[C@H](CCCNC(=N)N)NC(=O)[C@@H](N)CCCNC(=N)N)C(=O)O [R8] | – | stability in human serum (percentage of intact peptide), shuttles without cargo ([2]; MS (MALDI-TOF; text HPLC-MS)): degraded by serum proteases and almost not detected by HPLC-MS upon 24 h of incubation |
| RRWRRWRRWRRETVTLLVALKVRYRERIT [Mut6DPT-PP2A/SET] | does not significantly modify the stability | – |
